Data published in article PMC10970486 (Bioconjugate chemistry, 2024).

Target: MelBSt (melibiose permease) (Salmonella enterica, UniProt P30878)
Assay: displacement of D2G, Trp to dansyl FRET
Assay type: binding
Settings: excess melibiose added after D2G; extract in DDM, TMG-A13 or TMG-P10,8

Sequence of MelBSt (melibiose permease) (P30878 whole entry): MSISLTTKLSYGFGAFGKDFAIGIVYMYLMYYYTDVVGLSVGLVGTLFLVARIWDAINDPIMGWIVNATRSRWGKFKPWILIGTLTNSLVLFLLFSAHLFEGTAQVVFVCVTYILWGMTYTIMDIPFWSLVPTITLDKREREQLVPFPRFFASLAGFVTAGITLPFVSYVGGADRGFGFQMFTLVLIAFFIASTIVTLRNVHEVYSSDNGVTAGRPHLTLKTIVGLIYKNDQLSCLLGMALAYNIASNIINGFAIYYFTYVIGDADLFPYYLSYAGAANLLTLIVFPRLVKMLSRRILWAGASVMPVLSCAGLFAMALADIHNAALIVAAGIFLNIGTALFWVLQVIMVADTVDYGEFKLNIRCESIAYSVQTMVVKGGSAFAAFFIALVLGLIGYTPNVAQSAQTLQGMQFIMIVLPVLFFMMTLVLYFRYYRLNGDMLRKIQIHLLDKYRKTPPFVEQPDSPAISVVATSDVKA

OC[C@H]1O[C@H](OC[C@H]2OC(O)[C@H](O)[C@@H](O)[C@@H]2O)[C@H](O)[C@@H](O)[C@H]1O (stereo partly shown) [melibiose]
displacement of D2G, Trp to dansyl FRET: excess melibiose replaces the dansyl ligand with the non-fluorescent substrate in the active site
